# Measured values reported in PubChem BioAssay (NCI).
#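 All cell lines were grown in 96-well plates and treated with compound for 48 hours. The concentration for 50% growth inhibition is given as GI50. Definition used: TGI = concentration required for complete inhibition of growth.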
# Legend:
# Experiment in all cases: NCI tumour cell line growth inhibition, 48 h
# [1] = system: 786-0 renal
# [2] = system: A549 NSCLC
# [3] = system: ACHN renal
# [4] = system: BT-549 breast
# [5] = system: CAKI-1 renal
# [6] = system: CCRF-CEM leukemia
# [7] = system: COLO 205 colon
# [8] = system: EKVX NSCLC
# [9] = system: HCC-2998 colon
# [10] = system: HCT-116 colon
# [11] = system: HCT-15 colon
# [12] = system: HL-60(TB) leukemia
# [13] = system: HOP-62 NSCLC
# [14] = system: HOP-92 NSCLC
# [15] = system: HS 578T breast
# [16] = system: HT29 colon
# [17] = system: IGROV1 ovarian
# [18] = system: K-562 leukemia
# [19] = system: KM12 colon
# [20] = system: LOX IMVI melanoma
# [21] = system: M14 melanoma
# [22] = system: MALME-3M melanoma
# [23] = system: MCF7 breast
# [24] = system: MDA-MB-231 breast
# [25] = system: MDA-MB-435
# [26] = system: MOLT-4 leukemia
# [27] = system: NCI-H226 lung
# [28] = system: NCI-H460 lung
# [29] = system: NCI-H522 lung
# [30] = system: NCI/ADR-RES ovarian
# [31] = system: OVCAR-4 ovarian
# [32] = system: OVCAR-5 ovarian
# [33] = system: OVCAR-8 ovarian
# [34] = system: PC-3 prostate
# [35] = system: RPMI-8226 leukemia
# [36] = system: RXF 393 renal
# [37] = system: SF-268 CNS
# [38] = system: SF-295 CNS
# [39] = system: SF-539 CNS
# [40] = system: SK-MEL-2 melanoma
# [41] = system: SK-MEL-28 melanoma
# [42] = system: SK-MEL-5 melanoma
# [43] = system: SK-OV-3 ovarian
# [44] = system: SN12C renal
# [45] = system: SNB-19 CNS
# [46] = system: SNB-75 CNS
# [47] = system: SR leukemia
# [48] = system: SW-620 colon
# [49] = system: T-47D breast
# [50] = system: TK-10 renal
# [51] = system: U251 CNS
# [52] = system: UACC-257 melanoma
# [53] = system: UACC-62 melanoma
# [54] = system: UO-31 renal
# [55] = system: A498 renal
# [56] = system: DU-145 prostate
# [57] = system: NCI-H23 lung
structure (smiles),measurement,setting,value
COc1ccc(-c2cc(-c3cccc4ccccc34)n3c(n2)nc2ccccc23)cc1OC,GI50,[1],1570 nM
same,TGI,[1],> 100000 nM
same,GI50,[2],580 nM
same,TGI,[2],15200 nM
same,GI50,[3],461 nM
same,TGI,[3],3350 nM
same,GI50,[4],2270 nM
same,TGI,[4],6090 nM
same,GI50,[5],559 nM
same,TGI,[5],> 100000 nM
same,GI50,[6],556 nM
same,TGI,[6],> 100000 nM
same,GI50,[7],626 nM
same,TGI,[7],> 100000 nM
same,GI50,[8],2790 nM
same,TGI,[8],> 100000 nM
same,GI50,[9],1620 nM
same,TGI,[9],4720 nM
same,GI50,[10],1660 nM
same,TGI,[10],49000 nM
same,GI50,[11],926 nM
same,TGI,[11],> 100000 nM
same,GI50,[12],419 nM
same,TGI,[12],3290 nM
same,GI50,[13],650 nM
same,TGI,[13],4510 nM
same,GI50,[14],1650 nM
same,TGI,[14],7990 nM
same,GI50,[15],1420 nM
same,TGI,[15],> 100000 nM
same,GI50,[16],1910 nM
same,TGI,[16],28200 nM
same,GI50,[17],1480 nM
same,TGI,[17],> 100000 nM
same,GI50,[18],1320 nM
same,TGI,[18],> 100000 nM
same,GI50,[19],9430 nM
same,TGI,[19],> 100000 nM
same,GI50,[20],975 nM
same,TGI,[20],6650 nM
same,GI50,[21],2080 nM
same,TGI,[21],> 100000 nM
same,GI50,[22],882 nM
same,TGI,[22],16700 nM
same,GI50,[23],509 nM
same,TGI,[23],> 100000 nM
same,GI50,[24],1520 nM
same,TGI,[24],> 100000 nM
same,GI50,[25],2720 nM
same,TGI,[25],> 100000 nM
same,GI50,[26],354 nM
same,TGI,[26],> 100000 nM
same,GI50,[27],1160 nM
same,TGI,[27],6700 nM
same,GI50,[28],357 nM
same,TGI,[28],1750 nM
same,GI50,[29],2750 nM
same,TGI,[29],> 100000 nM
same,GI50,[30],2070 nM
same,TGI,[30],> 100000 nM
same,GI50,[31],4770 nM
same,TGI,[31],> 100000 nM
same,GI50,[32],3030 nM
same,TGI,[32],> 100000 nM
same,GI50,[33],1060 nM
same,TGI,[33],> 100000 nM
same,GI50,[34],2500 nM
same,TGI,[34],> 100000 nM
same,GI50,[35],1340 nM
same,TGI,[35],4290 nM
same,GI50,[36],2750 nM
same,TGI,[36],> 100000 nM
same,GI50,[37],1950 nM
same,TGI,[37],> 100000 nM
same,GI50,[38],582 nM
same,TGI,[38],5330 nM
same,GI50,[39],1020 nM
same,TGI,[39],7670 nM
same,GI50,[40],2570 nM
same,TGI,[40],7470 nM
same,GI50,[41],2880 nM
same,TGI,[41],> 100000 nM
same,GI50,[42],960 nM
same,TGI,[42],2840 nM
same,GI50,[43],2550 nM
same,TGI,[43],44900 nM
same,GI50,[44],1330 nM
same,TGI,[44],> 100000 nM
same,GI50,[45],2590 nM
same,TGI,[45],> 100000 nM
same,GI50,[46],867 nM
same,TGI,[46],4600 nM
same,GI50,[47],362 nM
same,TGI,[47],> 100000 nM
same,GI50,[48],780 nM
same,TGI,[48],> 100000 nM
same,GI50,[49],1730 nM
same,TGI,[49],9240 nM
same,GI50,[50],2470 nM
same,TGI,[50],> 100000 nM
same,GI50,[51],1160 nM
same,TGI,[51],> 100000 nM
same,GI50,[52],2140 nM
same,TGI,[52],40300 nM
same,GI50,[53],1030 nM
same,TGI,[53],7200 nM
same,GI50,[54],675 nM
same,TGI,[54],> 100000 nM
CN(C)c1ccc(-c2cc(-c3c[nH]c4ccccc34)nc(N)c2C#N)cc1,GI50,[55],1780 nM
same,TGI,[55],4660 nM
same,GI50,[2],1920 nM
same,TGI,[2],7090 nM
same,GI50,[3],2790 nM
same,TGI,[3],23400 nM
same,GI50,[4],2220 nM
same,TGI,[4],7310 nM
same,GI50,[5],1670 nM
same,TGI,[5],7210 nM
same,GI50,[6],1540 nM
same,TGI,[6],36400 nM
same,GI50,[7],2110 nM
same,TGI,[7],6030 nM
same,GI50,[56],3450 nM
same,TGI,[56],21000 nM
same,GI50,[8],3380 nM
same,TGI,[8],27200 nM
same,GI50,[9],2150 nM
same,TGI,[9],10500 nM
same,GI50,[10],1600 nM
same,TGI,[10],4450 nM
same,GI50,[11],485 nM
same,TGI,[11],10400 nM
same,GI50,[12],1790 nM
same,TGI,[12],6030 nM
same,GI50,[13],1830 nM
same,TGI,[13],6960 nM
same,GI50,[14],2140 nM
same,TGI,[14],5120 nM
same,GI50,[15],2080 nM
same,TGI,[15],6710 nM
same,GI50,[16],1720 nM
same,TGI,[16],6430 nM
same,GI50,[17],2350 nM
same,TGI,[17],17600 nM
same,GI50,[18],653 nM
same,TGI,[18],> 100000 nM
same,GI50,[19],1850 nM
same,TGI,[19],8720 nM
same,GI50,[20],1560 nM
same,TGI,[20],3580 nM
same,GI50,[21],1700 nM
same,TGI,[21],4350 nM
same,GI50,[22],1720 nM
same,TGI,[22],4600 nM
same,GI50,[23],1510 nM
same,TGI,[23],10400 nM
same,GI50,[24],2160 nM
same,TGI,[24],10600 nM
same,GI50,[25],466 nM
same,TGI,[25],10100 nM
same,GI50,[26],1890 nM
same,TGI,[26],14100 nM
same,GI50,[27],4230 nM
same,TGI,[27],27000 nM
same,GI50,[57],3130 nM
same,TGI,[57],15700 nM
same,GI50,[28],1060 nM
same,TGI,[28],3500 nM
same,GI50,[29],446 nM
same,TGI,[29],2160 nM
same,GI50,[30],1820 nM
same,TGI,[30],> 100000 nM
same,GI50,[31],4780 nM
same,TGI,[31],31600 nM
same,GI50,[32],3170 nM
same,TGI,[32],19100 nM
same,GI50,[33],2780 nM
same,TGI,[33],10700 nM
same,GI50,[34],2790 nM
same,TGI,[34],15600 nM
same,GI50,[35],1950 nM
same,TGI,[35],4890 nM
same,GI50,[36],1300 nM
same,TGI,[36],3130 nM
same,GI50,[37],3890 nM
same,TGI,[37],31900 nM
same,GI50,[38],1860 nM
same,TGI,[38],4140 nM
same,GI50,[39],1330 nM
same,TGI,[39],3050 nM
same,GI50,[41],1780 nM
same,TGI,[41],4600 nM
same,GI50,[42],1840 nM
same,TGI,[42],3600 nM
same,GI50,[43],2050 nM
same,TGI,[43],4880 nM
same,GI50,[44],2870 nM
same,TGI,[44],10800 nM
same,GI50,[45],2960 nM
same,TGI,[45],> 100000 nM
same,GI50,[46],1840 nM
same,TGI,[46],8960 nM
same,GI50,[47],419 nM
same,TGI,[47],4210 nM
same,GI50,[48],2160 nM
same,TGI,[48],11300 nM
same,GI50,[49],2320 nM
same,TGI,[49],7830 nM
same,GI50,[50],4100 nM
same,TGI,[50],39800 nM
same,GI50,[51],1530 nM
same,TGI,[51],4210 nM
same,GI50,[52],1890 nM
same,TGI,[52],4740 nM
same,GI50,[53],2050 nM
same,TGI,[53],7270 nM
same,GI50,[54],1880 nM
same,TGI,[54],6370 nM
